Data on 5 molecules can be found in patent US20210386709A1, “COMPOSITIONS AND METHODS FOR SUPPRESSING MSUT2” (United States Government As Represented By The Department …, priority 2020, published 2021).

Data set [1] addresses 3′,5′-cyclic phosphodiesterase. As to conditions: read-out: Ki (nM) for Known Target; cited from earlier work.
Data set [2] concerns the target T1, MSUT2 ZF (Homo sapiens, UniProt Q6PJT7).
T1 construct: Targeted construct consisted of the c-terminal end (dark blue and amino acids 601-736) of MSUT2; made in house; host or cells: E. coli BL21 (DE3)
T1 sequence (Q6PJT7 601-736): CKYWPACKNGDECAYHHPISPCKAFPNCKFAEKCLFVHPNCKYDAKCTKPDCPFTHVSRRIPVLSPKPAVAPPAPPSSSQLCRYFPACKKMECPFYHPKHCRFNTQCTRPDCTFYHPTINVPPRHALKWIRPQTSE
Kind of data set: Fluorescence polarization assay of FAM-poly(A) RNA:MSUT2 ZF binding. The method, then:
Fluorescence Polarization Assay. […] 2 μL of compound was transferred for a final concentration of 10 μM. […] Fluorescence polarization was calculated by first subtracting background from a buffer-only control well and then using the equation
Results and Discussion. A high-throughput fluorescence polarization assay for inhibition of poly(A):MSUT2 RNA interaction. […] In order to screen potential inhibitors of MSUT2 RBP and RNA by FP, fluorescent FAM (fluorescein amidite)-labeled poly(A)15 RNA (FAM-RNA) and recombinant MSUT2 ZF (zinc finger) protein expressing constructs were generated (FIG. 7a). […] Inhibition of the interaction results in unbound FAM-RNA tumbling at a relatively rapid rate and emitting non-polarized light (FIG. 7b).
To determine the concentrations of both MSUT2 ZF protein and FAM-RNA probe useful in the methods described herein, a two dimensional titration of protein and RNA concentrations in 96-well format was performed. […] Next, the binding constant between MSUT2 ZF and FAM-RNA was determined by holding FAM-RNA constant at 10 nM while increasing MSUT2 ZF concentration.
(§1) Identification and validation of MSUT2 inhibitory compounds from NIHCC library. […] IC50 of each of the previous 8 compounds was determined for PABPN1 using fluorescence polarization (FIG. 11), and a specificity ratio determined (Table 3). An Alpha Screen (AS) assay was developed as an orthogonal screen. Briefly, in this screen, biotinylated RNA binds streptavidin-coated donor beads, while GST-MSUT2 ZF binds glutathione-coated acceptor beads. When donor beads and acceptor beads are brought within close proximity of one another, laser excitation leads to fluorophore emission of the acceptor bead via excited singlet oxygen activating chemiluminescers in the acceptor beads. […] Toxicity of these compounds in a HEK cell model was determined using a standard Promega Cell Titer Glo assay.
(§2) Fluorescence Polarization Assay. […] of stock compound was transferred yielding 10 μM final concentration. […] Fluorescence polarization was calculated by first subtracting background from a buffer-only control well and then using the equation
On the technique in general: In fluorescence polarisation assays a small probe gives low polarisation when free and higher when bound to something large.

The subject of data set [3] is elderly patients. As to conditions: 10 year study of 20,215 elderly patients; cited from earlier work.
Data set [4] concerns rat model of chronic cerebral hypoperfusion. As to conditions: cited from earlier work.
Data set [5] concerns the target T2, PABPN1 (Homo sapiens, UniProt Q86U42).
T2 construct: made in house; host or cells: E. coli BL21 (DE3)
T2 sequence (Q86U42 1-306): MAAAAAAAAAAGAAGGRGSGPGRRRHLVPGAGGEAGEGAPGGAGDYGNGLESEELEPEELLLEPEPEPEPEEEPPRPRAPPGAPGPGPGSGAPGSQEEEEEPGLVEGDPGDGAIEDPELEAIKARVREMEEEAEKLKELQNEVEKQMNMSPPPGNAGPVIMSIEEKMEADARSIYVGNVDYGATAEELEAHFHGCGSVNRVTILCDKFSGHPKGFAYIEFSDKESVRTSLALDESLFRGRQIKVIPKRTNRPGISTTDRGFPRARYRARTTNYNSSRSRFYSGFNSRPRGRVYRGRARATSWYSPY
As to the kind of experiment: PABPN1 fluorescence polarization counter screen. In kind it is binding. As to the method:
A drug repurposing strategy: screening of the NIH Clinical Collection compound library. […] The plan to find suitable lead compounds for drug repurposing began with a screen of the NIH Clinical Collection (NIHCC) library. The NIHCC consists of a diverse array of 700 compounds with historical pharmacological use and well-studied safety profiles. […] An orthogonal poly(A):MSUT2 binding assay allowed the ruling out of assay interference while selectivity against MSUT2 over PABPN1 was determined by a parallel FP assay with PABPN1 as the RBP. […] Thus, the goal was to eliminate compounds interfering with both PABN1 and MSUT2 and focus on compounds truly specific for poly(A):MSUT2 binding.
as §1, §2

The target in data set [6] is T3, GST-MSUT2 (Homo sapiens, UniProt Q6PJT7).
T3 construct: Targeted construct consisted of the c-terminal end (dark blue and amino acids 601-736) of MSUT2; made in house; host or cells: E. coli BL21 (DE3)
T3 sequence (Q6PJT7 601-736): T1 sequence (Q6PJT7 601-736)
As to the kind of experiment: Alpha Screen assay of biotinylated poly(A) RNA:GST-MSUT2 binding. As to conditions: orthogonal dose-response validation. The method, then:
Alpha Screen Assay. Samples were set up in 384 well Perkin Elmer white opaque-bottom plates (PE06). A total reaction volume of […] was plated in 384 format using a CyBio Well Vario (6 μL of donor beads (10 μg/mL), 3 μL biotinylated RNA (250 nM), 3 μL GST-MSUT2 protein (250 nM) per well). 50 nL of compounds were transferred to wells via CyBio Vario equipped with Pin Tool. This mixture was incubated at room temperature for 30 minutes away from light. Next 3 μL of acceptor beads (1.25 μg/mL) was added. Plates were incubated at room temperature away from light for 60 minutes and subsequently read on a Perkin Elmer EnVision multimode microplate reader equipped with stackers using a standard 384-well Alpha Assay software protocol.
Results. Alpha Screen design and underlying principle. Alpha Screen technology relies on donor beads, coated with a hydrogel excitable by 680 nm, brought within close proximity to an acceptor bead leading to light emission and detection. In this assay, streptavidin coated donor beads tightly bind to biotinylated-poly(A) RNA while the glutathione-coated acceptor bead binds to GST-tagged MSUT2 protein. […] When this interaction is blocked by an inhibitor, the proximity threshold for donor and acceptor beads is not met, singlet oxygen transference cannot occur, and light is not emitted by the acceptor bead (FIG. 1a).
Identification and validation of MSUT2 inhibitory compounds from NIHCC library. The single-point primary screen was conducted in duplicate and utilized the FP assay conditions determined herein (e.g., 125 nM MSUT2 RNABP and 10 nM FAM-RNA probe) with 10 μM library compounds added in a 96-well format. […] Compound specificity was empirically tested by counter screening against PABPN1, a regulator of the length of mRNA poly(A) tails (Apponi, L. H. et al. Hum Mol Genet 19, 1058-1065, (2010); and Benoit, B. et al. Dev Cell 9, 511-522, (2005)). IC50 of each of the previous 8 compounds was determined for PABPN1 using fluorescence polarization (FIG. 11), and a specificity ratio determined (Table 3). An Alpha Screen (AS) assay was developed as an orthogonal screen. Briefly, in this screen, biotinylated RNA binds streptavidin-coated donor beads, while GST-MSUT2 ZF binds glutathione-coated acceptor beads. […] Toxicity of these compounds in a HEK cell model was determined using a standard Promega Cell Titer Glo assay.
Alpha Screen Assay. […] The plate was then incubated again at room temperature away from light for 60 minutes and subsequently read on a Perkin Elmer EnSight multimode microplate reader using a standard 96-well Alpha Assay protocol.

The target of data set [7] is T4, MSUT2 (Homo sapiens, UniProt Q6PJT7).
T4 sequence (Q6PJT7 1-736): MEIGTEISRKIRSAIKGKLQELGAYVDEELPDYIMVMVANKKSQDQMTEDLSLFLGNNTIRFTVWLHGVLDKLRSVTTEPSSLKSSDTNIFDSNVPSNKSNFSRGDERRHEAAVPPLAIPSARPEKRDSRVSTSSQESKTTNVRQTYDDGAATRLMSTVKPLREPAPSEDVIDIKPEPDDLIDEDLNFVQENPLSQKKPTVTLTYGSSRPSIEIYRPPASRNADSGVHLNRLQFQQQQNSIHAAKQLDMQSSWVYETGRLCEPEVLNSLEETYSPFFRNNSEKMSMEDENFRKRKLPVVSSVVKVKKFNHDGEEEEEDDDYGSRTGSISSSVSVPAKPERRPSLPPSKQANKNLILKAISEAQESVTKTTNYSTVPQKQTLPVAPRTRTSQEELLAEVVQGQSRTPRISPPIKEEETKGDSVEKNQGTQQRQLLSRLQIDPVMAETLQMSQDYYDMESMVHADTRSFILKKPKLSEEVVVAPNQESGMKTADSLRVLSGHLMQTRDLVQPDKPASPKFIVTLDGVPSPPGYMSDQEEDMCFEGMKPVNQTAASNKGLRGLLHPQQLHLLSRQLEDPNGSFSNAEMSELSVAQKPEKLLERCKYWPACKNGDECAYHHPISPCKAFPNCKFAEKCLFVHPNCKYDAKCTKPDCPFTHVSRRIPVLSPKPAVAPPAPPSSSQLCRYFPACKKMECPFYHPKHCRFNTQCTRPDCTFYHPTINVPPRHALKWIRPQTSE
As to conditions: read-out: Kd of MSUT2 for poly(A); cited from earlier work.

For data set [8], the system named is HEK-293 cells.
Protocol: Cell culture and cytotoxicity screen. […] Cell viability was assessed as using Promega Cell Titer Glo (Promega G7570) per manufacturer protocol. Briefly, HEK-293 cells were grown to 70% confluence in a 96 well plate were treated with indicated concentrations of compounds and incubated for 72 hours at 37° C. Plates were read for luminescence on Perkin Elmer Enspire Alpha.
Cell viability was assessed. Briefly, HEK-293 cells grown to 70% confluence in a 96 well dish were treated with varying concentrations of compound (final concentration of 2% DMSO) and incubated for 72 hours. Next, Promega Cell Titer Glo assay was used to assess viability per manufacturer instructions (Promega G7570).
The conditions of data set [9]: in vivo; cited from earlier work.
The test system of data set [10] is poly(A). As to conditions: cited from earlier work.

Broadly, the Ki is the dissociation constant of the complex between target and ligand, obtained from inhibition or displacement. What is called Kd is a measure of binding affinity in units of concentration.

As to `OCCN(CCO)c1nc(N2CCCCC2)c2nc(N(CCO)CCO)nc(N3CCCCC3)c2n1` [Dipyridamole], the Ki in [1] was 1000 nM. Besides, in data set [2] (calculated by Cheng Prusof equation Ki=(IC50)/[(L/Kd)+1], FP dose response), the “Ki (nm) for MSUT2” value was “failed DR”.
Consider `CNCC[C@H](Oc1cccc2ccccc12)c1cccs1` [Duloxetine], for which the risk of dementia result in data set [3] is “associated with reduced risk of dementia”. The “neuronal loss in the hippocampus” value in data set [4] was “attenuated neuronal loss in the hippocampus”. Also, the IC50PABPN1 result in data set [5] (fluorescence polarization counter screen, unit not given) is “None”. In addition, in data set [6], the “inhibition activity by Alpha Screen (AS)” value was “dose-dependent inhibition activity”.
For the molecule “poly(A): poly(A) RNA, natural ligand of MSUT2 (AAAAAAAAAAAAAAA; RNA, backbone not given here)”, the Kd in data set [7] is 60 ± 15 nM.
`O=S(=O)(O)c1cc(N=C=S)ccc1C=Cc1ccc(N=C=S)cc1S(=O)(=O)O` [4,4-diisothiocyanostilbene-2,2′-sulfonic acid]: the “toxicity (effect on cell viability)” value in [8] is “relatively non-toxic at the doses tested”.
Consider `CC(C)/N=c1\cc2n(-c3ccc(Cl)cc3)c3ccccc3nc-2cc1Nc1ccc(Cl)cc1` [Clofazimine], for which the IC50 in data set [5] (fluorescence polarization counter screen, unit inferred, read-out: IC50PABPN1) turned out to be 50600 nM; in [2] (read-out: IC50MSUT2), 990 nM. Besides, the PABPN1/MSUT2 specificity ratio in [5] (ratio of FP IC50s) was 51.07. Moreover, the “inhibition activity by Alpha Screen (AS)” value in data set [6] was “dose-dependent inhibition activity”. Also, the “crossing of the blood brain barrier” value in [9] is listed as “unable to cross the blood brain barrier”. Moreover, the “interaction with poly(A)” value in [10] is reported as “little interaction”. The inhibition constant (Ki) in data set [2] (calculated by Cheng Prusof equation Ki=(IC50)/[(L/Kd)+1], FP dose response, read-out: Ki (nm) for MSUT2) was 978 nM.
